The molecules below were run against T1, hTLR9 (Homo sapiens, UniProt Q9NR96) (assay: HEK293-Blue-hTLR-9 cells assay (SEAP reporter, ODN2006 stimulation)). Conditions: HEK293-Blue-hTLR9 cells, ODN2006, 20 hrs; 0.032 is the lowest tested concentration; read-out: HEK/hTLR9 IC50.
T1 sequence (Q9NR96 26-1032): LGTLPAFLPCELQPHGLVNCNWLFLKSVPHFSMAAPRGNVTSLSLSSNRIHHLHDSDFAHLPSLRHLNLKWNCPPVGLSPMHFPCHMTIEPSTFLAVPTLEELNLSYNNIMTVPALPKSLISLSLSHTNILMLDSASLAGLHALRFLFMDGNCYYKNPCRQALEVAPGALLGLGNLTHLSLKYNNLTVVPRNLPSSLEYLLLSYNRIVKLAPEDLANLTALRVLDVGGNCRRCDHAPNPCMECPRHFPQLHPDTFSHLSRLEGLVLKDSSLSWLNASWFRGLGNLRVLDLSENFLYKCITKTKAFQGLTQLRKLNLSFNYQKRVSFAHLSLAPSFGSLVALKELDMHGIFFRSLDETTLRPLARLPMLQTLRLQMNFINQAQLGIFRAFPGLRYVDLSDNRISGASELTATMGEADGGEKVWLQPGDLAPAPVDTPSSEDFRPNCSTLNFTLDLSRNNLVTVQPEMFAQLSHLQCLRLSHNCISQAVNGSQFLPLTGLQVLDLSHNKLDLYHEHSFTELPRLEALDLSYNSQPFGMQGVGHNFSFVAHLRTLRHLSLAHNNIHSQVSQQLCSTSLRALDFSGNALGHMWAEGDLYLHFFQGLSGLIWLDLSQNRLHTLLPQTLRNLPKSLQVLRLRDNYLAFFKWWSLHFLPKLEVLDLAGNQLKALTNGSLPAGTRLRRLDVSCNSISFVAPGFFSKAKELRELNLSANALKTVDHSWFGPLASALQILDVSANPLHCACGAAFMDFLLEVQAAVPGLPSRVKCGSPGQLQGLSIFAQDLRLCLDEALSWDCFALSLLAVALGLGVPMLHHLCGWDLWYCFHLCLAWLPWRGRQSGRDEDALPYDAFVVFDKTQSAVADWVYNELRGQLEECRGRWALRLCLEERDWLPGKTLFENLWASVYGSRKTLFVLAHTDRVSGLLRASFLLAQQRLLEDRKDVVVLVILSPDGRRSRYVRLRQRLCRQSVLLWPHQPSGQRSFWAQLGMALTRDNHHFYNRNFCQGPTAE
Assay type: cell-based
Description: The following tests were carried out in order to determine the activity of the compounds of formula (I) or (Ia) in HEK293-Blue-hTLR-7/8/9 cells assay.
HEK293-Blue-hTLR-9 cells assay:
A stable HEK293-Blue-hTLR-9 cell line was purchased from InvivoGen (Cat.#: hkb-htlr9, San Diego, California, USA). These cells were originally designed for studying the stimulation of human TLR9 by monitoring the activation of NF-κB. A SEAP (secreted embryonic alkaline phosphatase) reporter gene was placed under the control of the IFN-β minimal promoter fused to five NF-κB and AP-1-binding sites. The SEAP was induced by activating NF-κB and AP-1 via stimulating HEK-Blue hTLR9 cells with TLR9 ligands. Therefore the reporter expression was declined by TLR9 antagonist under the stimulation of a ligand, such as ODN2006 (Cat.#: tlrl-2006-1, Invivogen, San Diego, California, USA), for incubation of 20 hrs. The cell culture supernatant SEAP reporter activity was determined using QUANTI-Blue™ kit (Cat.#: rep-qb1, Invivogen, San Diego, California, USA) at a wavelength of 640 nm, a detection medium that turns purple or blue in the presence of alkaline phosphatase.
HEK293-Blue-hTLR9 cells were incubated at a density of 250,000∼450,000 cells/mL in a volume of 170 µL in a 96-well plate in Dulbecco's Modified Eagle's medium (DMEM) containing 4.5 g/L glucose, 50 U/mL penicillin, […], […], 2 mM L-glutamine, 10% (v/v) heat-inactivated fetal bovine serum with addition of 20 µL test compound in a serial dilution in the presence of final DMSO at 1% and 10 µL of 20uM ODN2006 in above DMEM, perform incubation under 37 °C in a CO2 incubator for 20 hrs. Then 20 µL of the supernatant from each well was incubated with 180 µL Quanti-blue substrate solution at 37 °C for 2 hrs and the absorbance was read at 620∼655 nm using a spectrophotometer. The signalling pathway that TLR9 activation leads to downstream NF-κB activation has been widely accepted, and therefore similar reporter assay was modified for evaluating TLR9 antagonist.

Molecule | IC50
C[C@@H]1CN(c2ccc(C#N)c3ncccc23)C[C@H](CN2Cc3ccc(N4CC(N)C4)cc3C2)O1 [Example 77, 5-[(2S,6R)-2-[[5-(3-aminoazetidin-1-yl)isoindolin-2-yl]methyl]-6-methyl-morpholin-4-yl]quinoline-8-carbonitrile] | 239 nM
C[C@@H]1CN(c2ccc(C#N)c3nccnc23)C[C@H](CN2Cc3ccc(N4CC5COCC(C4)N5)cc3C2)O1 [Example 49, 8-[(2R,6S)-2-methyl-6-[[5-(3-oxa-7,9-diazabicyclo[3.3.1]nonan-7-yl)isoindolin-2-yl]methyl]morpholin-4-yl]quinoxaline-5-carbonitrile] | 164 nM
CC1CNCCN1c1ccc2c(c1)CN(C[C@H]1CN(c3ccc(C#N)c4ncccc34)C[C@@H](C)O1)C2 (stereo partly drawn) [Example 78, 5-[(2R,6S)-2-methyl-6-[[5-(2-methylpiperazin-1-yl)isoindolin-2-yl]methyl]morpholin-4-yl] quinoline-8-carbonitrile] | 163 nM
C[C@@H]1CN(c2ccc(C#N)c3ncccc23)C[C@H](CN2Cc3ccc(N4CC5CCC(C4)N5)cc3C2)O1 [Example 42, 5-[(2S,6R)-2-[[5-(3,8-diazabicyclo[3.2.1]octan-3-yl)isoindolin-2-yl]methyl]-6-methyl-morpholin-4-yl]quinoline-8-carbonitrile] | 97 nM
C[C@@H]1CN(c2ccc(C#N)c3nccnc23)C[C@H](CNCc2ccc(N3CCNCC3)cc2)O1 [Example 84, 8-[(2R,6S)-2-methyl-6-[[(4-piperazin-1-ylphenyl)methylamino]methyl]morpholin-4-yl]quinoxaline-5-carbonitrile] | 50 nM
C[C@@H]1CN(c2ccc(C#N)c3ncccc23)C[C@H](CN2Cc3ccc(N4CC5(CCN5)C4)cc3C2)O1 [Example 55, 5-[(2S,6R)-2-[[5-(1,6-diazaspiro[3.3]heptan-6-yl)isoindolin-2-yl]methyl]-6-methyl-morpholin-4-yl]quinoline-8-carbonitrile] | 84 nM
C[C@@H]1CN(c2ccc(C#N)c3ncccc23)C[C@H](CN2Cc3ccc(N4C5CNCC4COC5)cc3C2)O1 [Example 46, 5-[(2R,6S)-2-methyl-6-[[5-(3-oxa-7,9-diazabicyclo[3.3.1]nonan-9-yl)isoindolin-2-yl]methyl]morpholin-4-yl]quinoline-8-carbonitrile] | 75 nM
C[C@@H]1CN(c2ccc(C#N)c3nccnc23)C[C@H](CN2Cc3ccc(N4CCNCC4)cc3C2)O1 [Example 12, 8-[(2R,6S)-2-methyl-6-[(5-piperazin-1-ylisoindolin-2-yl)methyl]morpholin-4-yl]quinoxaline-5-carbonitrile] | 52 nM
C[C@@H]1CN(c2ccc(C#N)c3ncccc23)C[C@H](CN2Cc3cnc(N4CCNCC4)nc3C2)O1 [Example 63, 5-[(2R,6S)-2-methyl-6-[(2-piperazin-1-yl-5,7-dihydropyrrolo[3,4-d]pyrimidin-6-yl)methyl]morpholin-4-yl]quinoline-8-carbonitrile] | 120 nM
CC1CN(c2ccc3c(c2)CN(C[C@H]2CN(c4ccc(C#N)c5nccnc45)C[C@@H](C)O2)C3)CCN1 (stereo partly drawn) [Example 36, 8-[(2R,6S)-2-methyl-6-[[5-(3-methylpiperazin-1-yl)isoindolin-2-yl]methyl]morpholin-4-yl]quinoxaline-5-carbonitrile] | 57 nM
C[C@@H]1CN(c2ccc(C#N)c3nccnc23)C[C@H](CN2CCc3cc(N4CCNCC4)ccc3C2)O1 [Example 13, 8-[(2R,6S)-2-methyl-6-[(6-piperazin-1-yl-3,4-dihydro-1H-isoquinolin-2-yl)methyl]morpholin-4-yl]quinoxaline-5-carbonitrile] | 54 nM
C[C@@H]1CN(c2ccc(C#N)c3ncccc23)C[C@H](CN2Cc3ccccc3C2)O1 [Example R3, 5-[(2S,6R)-2-(isoindolin-2-ylmethyl)-6-methyl-morpholin-4-yl]quinoline-8-carbonitrile, reference compound] | 5540 nM
C[C@@H]1CN(c2ccc(C#N)c3ncccc23)C[C@H](CNCc2ccc(N3CCNCC3)cc2)O1 [Example 86, 5-[(2R,6S)-2-methyl-6-[[(4-piperazin-1-ylphenyl)methylamino]methyl]morpholin-4-yl] quinoline-8-carbonitrile] | < 32 nM
C[C@@H]1CN(c2ccc(C#N)c3ncccc23)C[C@H](CN2Cc3cc(N4CCNCC4)cnc3C2)O1 [Example 20, 5-[(2R,6S)-2-methyl-6-[(3-piperazin-1-yl-5,7-dihydropyrrolo[3,4-b]pyridin-6-yl)methyl]morpholin-4-yl]quinoline-8-carbonitrile] | 48 nM

More lines, in order of falling IC50, values ahead:

IC50 | Molecule
227 nM | C[C@@H]1CN(c2ccc(C#N)c3nccnc23)C[C@H](CN2Cc3ccc(N4CCNC5(CC5)C4)cc3C2)O1 [Example 38, 8-[(2S,6R)-2-[[5-(4,7-diazaspiro[2.5]octan-7-yl)isoindolin-2-yl]methyl]-6-methyl-morpholin-4-yl]quinoxaline-5-carbonitrile]
136 nM | C[C@@H]1CN(c2ccc(C#N)c3nccnc23)C[C@H](CN2Cc3cc(N4CCNCC4)cnc3C2)O1 [Example 30, 8-[(2R,6S)-2-methyl-6-[(3-piperazin-1-yl-5,7-dihydropyrrolo[3,4-b]pyridin-6-yl)methyl]morpholin-4-yl]quinoxaline-5-carbonitrile]
122 nM | C[C@@H]1CN(c2ccc(C#N)c3nccnc23)C[C@H](CN2Cc3ccc(N4CCN5CCCCC5C4)cc3C2)O1 (stereo partly drawn) [Example 40, 8-[(2S,6R)-2-[[5-(1,3,4,6,7,8,9,9a-octahydropyrido[1,2-a]pyrazin-2-yl)isoindolin-2-yl]methyl]-6-methyl-morpholin-4-yl]quinoxaline-5-carbonitrile]
82 nM | C[C@@H]1CN(c2ccc(C#N)n3nccc23)C[C@H](CNCc2ccc(N3CCNCC3)cc2)O1 [Example 16, 4-[(2R,6S)-2-methyl-6-[[(4-piperazin-1-ylphenyl)methylamino]methyl]morpholin-4-yl]pyrazolo[1,5-a]pyridine-7-carbonitrile]
63 nM | C[C@@H]1CN(c2ccc(C#N)c3ncccc23)C[C@H](CN2Cc3ccc(N4CCNC[C@H]4CO)cc3C2)O1 [Example 83, 5-[(2S,6R)-2-[[5-[(2S)-2-(hydroxymethyl)piperazin-1-yl]isoindolin-2-yl]methyl]-6-methyl-morpholin-4-yl]quinoline-8-carbonitrile]
62 nM | C[C@@H]1CN(c2ccc3c(c2)CN(C[C@H]2CN(c4ccc(C#N)c5ncccc45)C[C@@H](C)O2)C3)CCN1 [Example 62, 5-[(2R,6S)-2-methyl-6-[[5-[(3R)-3-methylpiperazin-1-yl]isoindolin-2-yl]methyl]morpholin-4-yl] quinoline-8-carbonitrile]
51 nM | 5-[(2S,6R)-2-[[5-[3-(hydroxymethyl)piperazin-1-yl]isoindolin-2-yl]methyl]-6-methyl-morpholin-4-yl]quinoline-8-carbonitrile [Example 85]
46 nM | C[C@@H]1CN(c2ccc(C#N)n3nccc23)C[C@H](CN2CCc3cc(N4CCN(C)CC4)ccc3C2)O1 [Example 15, 4-[(2R,6S)-2-methyl-6-[[6-(4-methylpiperazin-1-yl)-3,4-dihydro-1H-isoquinolin-2-yl]methyl]morpholin-4-yl]pyrazolo[1,5-a]pyridine-7-carbonitrile]

Reference: patent publication EP3623369A1, “NOVEL MORPHOLINYL AMINE COMPOUNDS FOR THE TREATMENT OF AUTOIMMUNE DISEASE” (F. Hoffmann-La Roche AG, priority 2018, dated 2020)
